Measurements as given in ChEMBL document CHEMBL3132787, “Polyhydroxylated pyrrolidine and 2-oxapyrrolizidine as glycosidase inhibitors” (Medchemcomm, 2013).

Legend:
[1] = test system: Helix pomatia; experiment: Inhibition of Helix pomatia beta-mannosidase using p-nitrophenyl glycoside as substrate assessed as residual activity at 1 mM after 25 mins by spectrophotometer analysis
[2] = test system: Prunus dulcis; experiment: Inhibition of sweet almond beta-glucosidase using p-nitrophenyl glycoside as substrate assessed as residual activity at 1 mM after 25 mins by spectrophotometer analysis
[3] = target: Alpha-galactosidase (Coffea arabica) (UniProt Q42656); experiment: Inhibition of green coffee bean alpha-galactosidase using p-nitrophenyl glycoside as substrate assessed as residual activity at 1 mM after 25 mins by spectrophotometer analysis
Alpha-galactosidase (Coffea arabica), sequence (Q42656 16-378 limits assumed): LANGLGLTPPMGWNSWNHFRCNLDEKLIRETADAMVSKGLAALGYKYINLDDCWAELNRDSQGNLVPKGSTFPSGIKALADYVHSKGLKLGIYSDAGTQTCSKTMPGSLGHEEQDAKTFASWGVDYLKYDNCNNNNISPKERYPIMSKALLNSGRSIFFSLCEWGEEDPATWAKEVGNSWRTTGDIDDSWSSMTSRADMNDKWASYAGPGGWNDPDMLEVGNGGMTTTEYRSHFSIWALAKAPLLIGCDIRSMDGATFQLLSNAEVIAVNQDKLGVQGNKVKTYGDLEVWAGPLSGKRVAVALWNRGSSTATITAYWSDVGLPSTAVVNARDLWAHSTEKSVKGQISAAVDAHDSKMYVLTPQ

[4] = test system: Canavalia ensiformis; experiment: Inhibition of jack bean alpha-mannosidase using p-nitrophenyl glycoside as substrate assessed as residual activity at 1 mM after 25 mins by spectrophotometer analysis
[5] = target: Beta-galactosidase (Escherichia coli) (UniProt Q8VNN2); experiment: Inhibition of Escherichia coli beta-galactosidase using p-nitrophenyl glycoside as substrate assessed as residual activity at 1 mM after 25 mins by spectrophotometer analysis
Beta-galactosidase (Escherichia coli), sequence (Q8VNN2 whole entry, looked up): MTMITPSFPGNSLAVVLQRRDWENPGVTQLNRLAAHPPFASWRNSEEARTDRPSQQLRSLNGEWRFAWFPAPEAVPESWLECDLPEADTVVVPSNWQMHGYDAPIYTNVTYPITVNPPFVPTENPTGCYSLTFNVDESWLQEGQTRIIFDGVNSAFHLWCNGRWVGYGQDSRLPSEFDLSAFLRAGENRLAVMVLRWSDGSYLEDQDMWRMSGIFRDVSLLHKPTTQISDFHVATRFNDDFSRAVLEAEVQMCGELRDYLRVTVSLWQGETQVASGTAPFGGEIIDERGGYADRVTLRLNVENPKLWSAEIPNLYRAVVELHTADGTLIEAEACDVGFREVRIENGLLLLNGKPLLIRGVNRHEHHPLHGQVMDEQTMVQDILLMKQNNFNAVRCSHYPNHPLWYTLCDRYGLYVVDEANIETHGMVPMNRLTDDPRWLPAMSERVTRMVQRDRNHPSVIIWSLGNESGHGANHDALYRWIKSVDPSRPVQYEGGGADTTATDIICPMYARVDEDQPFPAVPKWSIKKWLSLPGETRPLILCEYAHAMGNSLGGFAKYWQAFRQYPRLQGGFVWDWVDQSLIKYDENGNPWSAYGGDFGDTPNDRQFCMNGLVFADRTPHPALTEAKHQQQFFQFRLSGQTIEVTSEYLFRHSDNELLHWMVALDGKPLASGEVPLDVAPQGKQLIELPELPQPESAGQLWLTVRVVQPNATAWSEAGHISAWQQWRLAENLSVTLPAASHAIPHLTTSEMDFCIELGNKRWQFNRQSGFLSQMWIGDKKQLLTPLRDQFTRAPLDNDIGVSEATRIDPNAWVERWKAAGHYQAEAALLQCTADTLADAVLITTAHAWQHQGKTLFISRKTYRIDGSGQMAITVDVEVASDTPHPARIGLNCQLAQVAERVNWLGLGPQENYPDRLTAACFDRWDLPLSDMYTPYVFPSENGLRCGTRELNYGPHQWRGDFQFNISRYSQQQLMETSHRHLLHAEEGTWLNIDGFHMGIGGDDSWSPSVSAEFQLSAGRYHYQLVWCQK

[6] = test system: Geobacillus stearothermophilus; experiment: Inhibition of Bacillus stearothermophilus alpha-glucosidase using p-nitrophenyl glycoside as substrate assessed as residual activity at 1 mM after 25 mins by spectrophotometer analysis
[7] = Competitive inhibition of sweet almond beta-glucosidase using p-nitrophenyl glycoside as substrate by Lineweaver-Burk plot analysis; design: species or system Prunus dulcis
[8] = target: Alpha-galactosidase (Coffea arabica, UniProt Q42656); experiment: Competitive inhibition of green coffee bean alpha-galactosidase using p-nitrophenyl glycoside as substrate by Lineweaver-Burk plot analysis
Alpha-galactosidase, sequence (Q42656 whole entry): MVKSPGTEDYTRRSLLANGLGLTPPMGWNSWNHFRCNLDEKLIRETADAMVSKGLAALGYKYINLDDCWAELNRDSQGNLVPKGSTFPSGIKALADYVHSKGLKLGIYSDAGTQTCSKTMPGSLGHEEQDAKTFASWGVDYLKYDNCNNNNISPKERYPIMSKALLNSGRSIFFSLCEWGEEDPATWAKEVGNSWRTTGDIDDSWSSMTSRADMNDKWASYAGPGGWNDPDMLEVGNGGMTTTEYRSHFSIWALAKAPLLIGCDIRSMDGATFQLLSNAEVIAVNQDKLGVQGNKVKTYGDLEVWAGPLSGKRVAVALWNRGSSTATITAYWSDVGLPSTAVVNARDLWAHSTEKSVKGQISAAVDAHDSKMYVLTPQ

Structure (SMILES)	Activity [1]	Activity [2]	Activity [3]	Activity [4]	Activity [5]	Activity [6]	Ki [7]	Ki [8]
O=C(NCCP(=O)(O)O)[C@@H]1C[C@H](O)[C@@H](CO)N1	93.7%	83.6%	107%	83.9%	55.8%	97.1%		
O=C1OC[C@@H]2C[C@H](O)[C@@H](CO)N12	98.7%	75.7%	5.4%	72.2%	109%	39.1%		40.8 µM

Now from value to compound:

Activity [1]	Activity [2]	Activity [3]	Activity [4]	Activity [5]	Activity [6]	Ki [7]	Ki [8]	Structure (SMILES)
100%	96.1%	91.9%	76.8%	114%	97%			O=P(O)(O)OC[C@@H]1C[C@H](O)[C@@H](CO)N1
97%	1.7%	50.4%	102%	53.5%	12.8%	29.2 µM		OC[C@@H]1C[C@H](O)[C@@H](CO)N1
99.3%	115%	95.2%	82%	90.7%	110%			O=C(O)[C@@H]1C[C@H](O)[C@@H](CO)N1
